{"source": "the supplement of paper PMC10307832", "experiment_in_all_cases": "relative viability (nuclei count vs DMSO), 5 days (fraction); higher = more cells survive", "key": {"[1]": {"system": "201T", "how_it_was_run": "(§1)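 Lung cancer cell lines in 1536-well plates got either a single drug or a fixed anchor-drug dose together with five library-drug doses (not always all listed) in √10 steps, by pin tool, on the day after seeding. Nuclei were counted after 5 days, and relative viability is the treated-to-vehicle ratio of nuclei counts. Values are medians of duplicate plates.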"}, "[2]": {"system": "ABC-1", "how_it_was_run": "as §1"}, "[3]": {"system": "BEN", "how_it_was_run": "as §1"}, "[4]": {"system": "CAL-12T", "how_it_was_run": "as §1"}, "[5]": {"system": "H3255", "how_it_was_run": "as §1"}, "[6]": {"system": "HARA", "how_it_was_run": "as §1"}, "[7]": {"system": "HCC-15", "how_it_was_run": "as §1"}, "[8]": {"system": "HCC-827", "how_it_was_run": "as §1"}, "[9]": {"system": "LC-2-ad", "how_it_was_run": "as §1"}, "[10]": {"system": "LCLC-103H", "how_it_was_run": "as §1"}, "[11]": {"system": "LOU-NH91", "how_it_was_run": "as §1"}, "[12]": {"system": "LU99A", "how_it_was_run": "as §1"}, "[13]": {"system": "NCI-H1355", "how_it_was_run": "as §1"}, "[14]": {"system": "NCI-H1666", "how_it_was_run": "as §1"}, "[15]": {"system": "NCI-H1755", "how_it_was_run": "as §1"}, "[16]": {"system": "NCI-H1993", "how_it_was_run": "as §1"}, "[17]": {"system": "NCI-H2085", "how_it_was_run": "as §1"}, "[18]": {"system": "NCI-H2170", "how_it_was_run": "as §1"}, "[19]": {"system": "NCI-H2228", "how_it_was_run": "as §1"}, "[20]": {"system": "NCI-H2342", "how_it_was_run": "as §1"}, "[21]": {"system": "NCI-H23", "how_it_was_run": "as §1"}, "[22]": {"system": "NCI-H727", "how_it_was_run": "as §1"}, "[23]": {"system": "PC-3 [JPC-3]", "how_it_was_run": "as §1"}, "[24]": {"system": "RERF-LC-KJ", "how_it_was_run": "as §1"}, "[25]": {"system": "SK-LU-1", "how_it_was_run": "as §1"}}}
{"smiles": "Nc1cccc2c1CN(C1CCC(=O)NC1=O)C2=O", "note": "(stereo not given) [Lenalidomide] + COc1cc2c(Oc3ccc(NC(=O)C4(C(=O)Nc5ccc(F)cc5)CC4)cc3F)ccnc2cc1OCCCN1CCOCC1 [Foretinib] (partner 0.25 µM)", "values": [{"measurement": "relative viability", "setting": "[1]; first compound 0.253 µM", "value": 1.08}, {"measurement": "relative viability", "setting": "[1]; first compound 2.53 µM", "value": 1.23}, {"measurement": "relative viability", "setting": "[1]; first compound 8 µM", "value": 1.13}, {"measurement": "relative viability", "setting": "[2]; first compound 0.253 µM", "value": 0.977}, {"measurement": "relative viability", "setting": "[2]; first compound 0.8 µM", "value": 1.19}, {"measurement": "relative viability", "setting": "[2]; first compound 2.53 µM", "value": 1.14}, {"measurement": "relative viability", "setting": "[2]; first compound 8 µM", "value": 0.811}, {"measurement": "relative viability", "setting": "[3]; first compound 0.253 µM", "value": 0.822}, {"measurement": "relative viability", "setting": "[3]; first compound 0.8 µM", "value": 0.583}, {"measurement": "relative viability", "setting": "[3]; first compound 2.53 µM", "value": 0.812}, {"measurement": "relative viability", "setting": "[3]; first compound 8 µM", "value": 0.409}, {"measurement": "relative viability", "setting": "[4]; first compound 0.253 µM", "value": 1.21}, {"measurement": "relative viability", "setting": "[4]; first compound 0.8 µM", "value": 1.22}, {"measurement": "relative viability", "setting": "[4]; first compound 2.53 µM", "value": 1.23}, {"measurement": "relative viability", "setting": "[4]; first compound 8 µM", "value": 1.29}, {"measurement": "relative viability", "setting": "[5]; first compound 0.253 µM", "value": 0.733}, {"measurement": "relative viability", "setting": "[5]; first compound 0.8 µM", "value": 0.825}, {"measurement": "relative viability", "setting": "[5]; first compound 2.53 µM", "value": 0.95}, {"measurement": "relative viability", "setting": "[5]; first compound 8 µM", "value": 0.727}, {"measurement": "relative viability", "setting": "[6]; first compound 0.253 µM", "value": 0.846}, {"measurement": "relative viability", "setting": "[6]; first compound 2.53 µM", "value": 0.856}, {"measurement": "relative viability", "setting": "[6]; first compound 8 µM", "value": 0.955}, {"measurement": "relative viability", "setting": "[7]; first compound 0.253 µM", "value": 1.03}, {"measurement": "relative viability", "setting": "[7]; first compound 0.8 µM", "value": 1.04}, {"measurement": "relative viability", "setting": "[7]; first compound 2.53 µM", "value": 1.17}, {"measurement": "relative viability", "setting": "[7]; first compound 8 µM", "value": 1.05}, {"measurement": "relative viability", "setting": "[8]; first compound 0.253 µM", "value": 1.03}, {"measurement": "relative viability", "setting": "[8]; first compound 0.8 µM", "value": 1.05}, {"measurement": "relative viability", "setting": "[8]; first compound 2.53 µM", "value": 1.01}, {"measurement": "relative viability", "setting": "[8]; first compound 8 µM", "value": 1.04}, {"measurement": "relative viability", "setting": "[9]; first compound 0.253 µM", "value": 0.92}, {"measurement": "relative viability", "setting": "[9]; first compound 2.53 µM", "value": 1.05}, {"measurement": "relative viability", "setting": "[9]; first compound 8 µM", "value": 0.96}, {"measurement": "relative viability", "setting": "[10]; first compound 0.253 µM", "value": 0.761}, {"measurement": "relative viability", "setting": "[10]; first compound 0.8 µM", "value": 0.806}, {"measurement": "relative viability", "setting": "[10]; first compound 2.53 µM", "value": 0.888}, {"measurement": "relative viability", "setting": "[10]; first compound 8 µM", "value": 0.682}, {"measurement": "relative viability", "setting": "[11]; first compound 0.253 µM", "value": 0.97}, {"measurement": "relative viability", "setting": "[11]; first compound 0.8 µM", "value": 0.923}, {"measurement": "relative viability", "setting": "[11]; first compound 2.53 µM", "value": 0.942}, {"measurement": "relative viability", "setting": "[11]; first compound 8 µM", "value": 0.898}, {"measurement": "relative viability", "setting": "[12]; first compound 0.253 µM", "value": 0.831}, {"measurement": "relative viability", "setting": "[12]; first compound 0.8 µM", "value": 0.789}, {"measurement": "relative viability", "setting": "[12]; first compound 2.53 µM", "value": 0.761}, {"measurement": "relative viability", "setting": "[12]; first compound 8 µM", "value": 0.599}, {"measurement": "relative viability", "setting": "[13]; first compound 0.253 µM", "value": 0.973}, {"measurement": "relative viability", "setting": "[13]; first compound 2.53 µM", "value": 0.901}, {"measurement": "relative viability", "setting": "[13]; first compound 8 µM", "value": 0.808}, {"measurement": "relative viability", "setting": "[14]; first compound 0.253 µM", "value": 1}, {"measurement": "relative viability", "setting": "[14]; first compound 2.53 µM", "value": 1}, {"measurement": "relative viability", "setting": "[14]; first compound 8 µM", "value": 0.983}, {"measurement": "relative viability", "setting": "[15]; first compound 0.253 µM", "value": 0.915}, {"measurement": "relative viability", "setting": "[15]; first compound 0.8 µM", "value": 0.904}, {"measurement": "relative viability", "setting": "[15]; first compound 2.53 µM", "value": 0.886}, {"measurement": "relative viability", "setting": "[15]; first compound 8 µM", "value": 0.782}, {"measurement": "relative viability", "setting": "[16]; first compound 0.253 µM", "value": 0.739}, {"measurement": "relative viability", "setting": "[16]; first compound 0.8 µM", "value": 0.658}, {"measurement": "relative viability", "setting": "[16]; first compound 2.53 µM", "value": 0.775}, {"measurement": "relative viability", "setting": "[16]; first compound 8 µM", "value": 0.707}, {"measurement": "relative viability", "setting": "[17]; first compound 0.253 µM", "value": 1.04}, {"measurement": "relative viability", "setting": "[17]; first compound 0.8 µM", "value": 1.11}, {"measurement": "relative viability", "setting": "[17]; first compound 2.53 µM", "value": 0.929}, {"measurement": "relative viability", "setting": "[17]; first compound 8 µM", "value": 1.07}, {"measurement": "relative viability", "setting": "[18]; first compound 0.253 µM", "value": 0.972}, {"measurement": "relative viability", "setting": "[18]; first compound 0.8 µM", "value": 1}, {"measurement": "relative viability", "setting": "[18]; first compound 2.53 µM", "value": 1.04}, {"measurement": "relative viability", "setting": "[18]; first compound 8 µM", "value": 1.02}, {"measurement": "relative viability", "setting": "[19]; first compound 0.253 µM", "value": 0.943}, {"measurement": "relative viability", "setting": "[19]; first compound 0.8 µM", "value": 0.907}, {"measurement": "relative viability", "setting": "[19]; first compound 2.53 µM", "value": 1.04}, {"measurement": "relative viability", "setting": "[19]; first compound 8 µM", "value": 0.975}, {"measurement": "relative viability", "setting": "[20]; first compound 0.253 µM", "value": 1.08}, {"measurement": "relative viability", "setting": "[20]; first compound 0.8 µM", "value": 1.01}, {"measurement": "relative viability", "setting": "[20]; first compound 2.53 µM", "value": 1.11}, {"measurement": "relative viability", "setting": "[20]; first compound 8 µM", "value": 0.898}, {"measurement": "relative viability", "setting": "[21]; first compound 0.253 µM", "value": 0.926}, {"measurement": "relative viability", "setting": "[21]; first compound 0.8 µM", "value": 1.13}, {"measurement": "relative viability", "setting": "[21]; first compound 2.53 µM", "value": 0.847}, {"measurement": "relative viability", "setting": "[21]; first compound 8 µM", "value": 1.03}, {"measurement": "relative viability", "setting": "[22]; first compound 0.253 µM", "value": 0.904}, {"measurement": "relative viability", "setting": "[22]; first compound 0.8 µM", "value": 0.929}, {"measurement": "relative viability", "setting": "[22]; first compound 2.53 µM", "value": 1}, {"measurement": "relative viability", "setting": "[22]; first compound 8 µM", "value": 1.05}, {"measurement": "relative viability", "setting": "[23]; first compound 0.253 µM", "value": 1.06}, {"measurement": "relative viability", "setting": "[23]; first compound 0.8 µM", "value": 0.974}, {"measurement": "relative viability", "setting": "[23]; first compound 2.53 µM", "value": 1.17}, {"measurement": "relative viability", "setting": "[23]; first compound 8 µM", "value": 1.08}, {"measurement": "relative viability", "setting": "[24]; first compound 0.253 µM", "value": 0.891}, {"measurement": "relative viability", "setting": "[24]; first compound 0.8 µM", "value": 0.886}, {"measurement": "relative viability", "setting": "[24]; first compound 2.53 µM", "value": 0.962}, {"measurement": "relative viability", "setting": "[24]; first compound 8 µM", "value": 0.793}, {"measurement": "relative viability", "setting": "[25]; first compound 0.253 µM", "value": 0.71}, {"measurement": "relative viability", "setting": "[25]; first compound 0.8 µM", "value": 0.727}, {"measurement": "relative viability", "setting": "[25]; first compound 2.53 µM", "value": 1.02}, {"measurement": "relative viability", "setting": "[25]; first compound 8 µM", "value": 0.802}]}
